Assay results from US20260297070A1, “CYCLIC [COMPOUND LEFT OUT] WRN INHIBITORS” (Nimbus Wadjet, Inc., priority 2023, published 2026).

What follows are compounds tested against T1, human Werner helicase (WRN-BV08, Uniprot Q14191, amino acids 517-1235 with L1074F point mutation) (Homo sapiens, UniProt Q14191, L1074F) (assay: WRN (BV08) ADP-Glo Assay). Settings: 0.15 nM WRN, 5 μM ATP, 0.1 nM DNA duplex, 15 min preincubation, 60 min at 25° C., pH 7.5, 1% DMSO; read-out: ADP-Glo_hWRN_IC50.
T1 construct: Uniprot Q14191, amino acids 517-1235 with L1074F point mutation; TEV-cleavable 8×His (C, cleaved yes); made in house; host or cells: Sf9 insect cells (baculovirus)
T1 sequence (Q14191 with tags, fused parts or gaps L1074F limits assumed): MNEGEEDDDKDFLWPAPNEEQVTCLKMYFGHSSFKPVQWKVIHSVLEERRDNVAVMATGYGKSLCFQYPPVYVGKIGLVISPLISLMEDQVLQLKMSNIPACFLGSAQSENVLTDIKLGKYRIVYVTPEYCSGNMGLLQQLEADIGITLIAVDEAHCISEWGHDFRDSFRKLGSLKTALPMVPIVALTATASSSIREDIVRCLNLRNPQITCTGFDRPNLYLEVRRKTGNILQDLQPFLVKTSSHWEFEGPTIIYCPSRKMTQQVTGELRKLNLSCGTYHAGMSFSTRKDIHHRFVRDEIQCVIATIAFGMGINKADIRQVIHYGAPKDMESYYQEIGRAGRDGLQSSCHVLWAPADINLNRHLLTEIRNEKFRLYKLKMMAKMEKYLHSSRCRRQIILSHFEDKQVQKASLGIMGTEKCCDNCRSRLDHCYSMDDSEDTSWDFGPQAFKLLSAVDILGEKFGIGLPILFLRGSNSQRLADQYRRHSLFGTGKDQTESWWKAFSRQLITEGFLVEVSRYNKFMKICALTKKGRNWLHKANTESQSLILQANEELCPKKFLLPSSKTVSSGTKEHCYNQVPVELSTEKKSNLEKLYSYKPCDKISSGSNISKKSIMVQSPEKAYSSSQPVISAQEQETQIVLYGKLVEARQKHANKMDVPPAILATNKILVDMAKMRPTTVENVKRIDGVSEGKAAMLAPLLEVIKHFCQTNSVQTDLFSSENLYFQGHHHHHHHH
Type: biochemical
Outline: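 ADP-Glo luminescence read-out of ATP hydrolysis. Conditions: 0.15 nM WRN, 5 μM ATP, 0.1 nM DNA duplex, 1% DMSO, 60 min at 25 °C after 15 min compound preincubation. Max/min controls were DMSO and 20 μM NSC-617145; IC50 from four-parameter fit.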

| IC50 | SMILES |
| --- | --- |
| 10 to 50 µM | N#Cc1cccc(CN(C(=O)Cc2ccc(-n3cccc3)cc2)C2C=CS(=O)(=O)C2)c1 (stereo not shown) [I-286, N-[(3-cyanophenyl)methyl]-N-(1,1-dioxo-2,3-dihydro-1lambda6-thiophen-3-yl)-2-[4-(1H-pyrrol-1-yl)phenyl]acetamide] |
| 10 to 50 µM | O=C(Cc1ccc(-n2cccc2)cc1)N(Cc1noc(C2CC2)n1)C1C=CS(=O)(=O)C1 (stereo not shown) [I-342, N-[(5-cyclopropyl-1,2,4-oxadiazol-3-yl)methyl]-N-(1,1-dioxo-2,3-dihydro-1lambda6-thiophen-3-yl)-2-[4-(1H-pyrrol-1-yl)phenyl]acetamide] |
| < 0.5 µM | COC(C(=O)N(Cc1nc(C2CC2)cs1)C1C=CS(=O)(=O)C1)c1ccc(-c2ccc(F)c(F)c2)cc1F (stereo not shown) [I-47, N-[(4-cyclopropyl-1,3-thiazol-2-yl)methyl]-N-(1,1-dioxo-2,3-dihydro-1lambda6-thiophen-3-yl)-2-methoxy-2-{3,3′,4′-trifluoro-[1,1′-biphenyl]-4-yl}acetamide] |
| 10 to 50 µM | CC(C)Oc1ccc(CC(=O)N(Cc2ccncc2)C2C=CS(=O)(=O)C2)cc1 (stereo not shown) [I-365, N-(1,1-dioxo-2,3-dihydro-1lambda6-thiophen-3-yl)-2-[4-(propan-2-yloxy)phenyl]-N-[(pyridin-4-yl)methyl]acetamide] |
| 0.5 to 5 µM | O=C(Cc1ccc(-n2cccc2)cc1)N(Cc1ccnc2ccccc12)C1C=CS(=O)(=O)C1 (stereo not shown) [I-170, N-(1,1-dioxo-2,3-dihydro-1lambda6-thiophen-3-yl)-2-[4-(1H-pyrrol-1-yl)phenyl]-N-[(quinolin-4-yl)methyl]acetamide] |
| > 50 µM | Cc1ccnn1-c1ccc(CC(=O)N(Cc2ccncc2)C2C=CS(=O)(=O)C2)cc1 (stereo not shown) [I-441, N-(1,1-dioxo-2,3-dihydro-1lambda6-thiophen-3-yl)-2-[4-(5-methyl-1H-pyrazol-1-yl)phenyl]-N-[(pyridin-4-yl)methyl]acetamide] |
| > 50 µM | COc1ccc(C(F)(F)C(=O)N(Cc2ccncc2)C2C=CS(=O)(=O)C2)cc1 (stereo not shown) [I-649, N-(1,1-dioxo-2,3-dihydro-1lambda6-thiophen-3-yl)-2,2-difluoro-2-(4-methoxyphenyl)-N-[(pyridin-4-yl)methyl]acetamide] |
| 0.5 to 5 µM | O=C(Cc1ccc(-c2cccc(F)c2)cc1F)N(Cc1ccncc1)C1C=CS(=O)(=O)C1 (stereo not shown) [I-120, 2-{3,3′-difluoro-[1,1′-biphenyl]-4-yl}-N-(1,1-dioxo-2,3-dihydro-1lambda6-thiophen-3-yl)-N-[(pyridin-4-yl)methyl]acetamide] |
| > 50 µM | COCc1cc(-c2ccc(F)cc2)ccc1CC(=O)N(Cc1ccncc1)C1C=CS(=O)(=O)C1 (stereo not shown) [I-376, N-(1,1-dioxo-2,3-dihydro-1lambda6-thiophen-3-yl)-2-[4′-fluoro-3-(methoxymethyl)-[1,1′-biphenyl]-4-yl]-N-[(pyridin-4-yl)methyl]acetamide] |
| 0.5 to 5 µM | COCCOC(C(=O)N(Cc1ccnc(C(C)(C)O)c1)[C@@H]1C=CS(=O)(=O)C1)c1ccc(S(F)(F)(F)(F)F)cc1 (single isomer, unassigned) [I-765] |
| 0.5 to 5 µM | O=C(C(C(=O)N(Cc1ccncc1)C1C=CS(=O)(=O)C1)c1ccc(-c2ccc(F)cc2)cc1)N1CCCC1 (stereo not shown) [I-125, N-(1,1-dioxo-2,3-dihydro-1lambda6-thiophen-3-yl)-2-{4′-fluoro-[1,1′-biphenyl]-4-yl}-3-oxo-N-[(pyridin-4-yl)methyl]-3-(pyrrolidin-1-yl)propanamide] |
| 5 to 10 µM | Cc1cccn1-c1ccc(CC(=O)N(Cc2cccnn2)C2C=CS(=O)(=O)C2)c(F)c1 (stereo not shown) [I-224, N-(1,1-dioxo-2,3-dihydro-1lambda6-thiophen-3-yl)-2-[2-fluoro-4-(2-methyl-1H-pyrrol-1-yl)phenyl]-N-[(pyridazin-3-yl)methyl]acetamide] |
| > 50 µM | O=C(Cn1cc(-c2cc(F)c(F)c(F)c2)cn1)OCC1(c2csc(CNC3C=CS(=O)(=O)C3)n2)CC1 (stereo not shown) [I-823, [1-(2-{[(1,1-dioxo-2,3-dihydro-1lambda6-thiophen-3-yl)amino]methyl}-1,3-thiazol-4-yl)cyclopropyl]methyl 2-[4-(3,4,5-trifluorophenyl)-1H-pyrazol-1-yl]acetate] |
| > 50 µM | N#CCOc1ccc(CC(=O)N(Cc2ccncc2)C2C=CS(=O)(=O)C2)cc1 (stereo not shown) [I-432, 2-[4-(cyanomethoxy)phenyl]-N-(1,1-dioxo-2,3-dihydro-1lambda6-thiophen-3-yl)-N-[(pyridin-4-yl)methyl]acetamide] |
| < 0.5 µM | CC(C)(O)c1cc(CN(C(=O)Cn2ccc(-c3ccc(F)c(F)c3)cc2=O)[C@@H]2C=CS(=O)(=O)C2)ccn1 [I-13, (R)-2-(4-(3,4-difluorophenyl)-2-oxopyridin-1(2H)-yl)-N-(1,1-dioxido-2,3-dihydrothiophen-3-yl)-N-((2-(2-hydroxypropan-2-yl)pyridin-4-yl)methyl)acetamide] |
| < 0.5 µM | COc1cc(CN(C(=O)Cc2ccc(S(F)(F)(F)(F)F)cc2)C2C=CS(=O)(=O)C2)ccn1 (stereo not shown) [I-29, N-(1,1-dioxo-2,3-dihydro-1lambda6-thiophen-3-yl)-N-[(2-methoxypyridin-4-yl)methyl]-2-[4-(pentafluoro-lambda6-sulfanyl)phenyl]acetamide] |
| < 0.5 µM | COc1cc(CN(C(=O)Cc2ccc(-c3ccc(F)c(F)c3)cc2F)C2C=CS(=O)(=O)C2)ccn1 (single isomer, unassigned) [I-35] |
| > 50 µM | COc1cc(CN(C(=O)C(OCCS(C)(=O)=O)c2ccc(-c3ccc(F)c(F)c3)cc2F)[C@@H]2C=CS(=O)(=O)C2)ccn1 (single isomer, unassigned) [I-710, (2R*)-N-[(3R)-1,1-dioxo-2,3-dihydro-1lambda6-thiophen-3-yl]-2-(2-methanesulfonylethoxy)-N-[(2-methoxypyridin-4-yl)methyl]-2-{3,3′,4′-trifluoro-[1,1′-biphenyl]-4-yl}acetamide] |
| 0.5 to 5 µM | O=C(Cc1ccc(-n2cccc2)cc1)N(Cc1nc2ccccc2s1)C1C=CS(=O)(=O)C1 (stereo not shown) [I-149, N-[(1,3-benzothiazol-2-yl)methyl]-N-(1,1-dioxo-2,3-dihydro-1lambda6-thiophen-3-yl)-2-[4-(1H-pyrrol-1-yl)phenyl]acetamide] |
| 0.5 to 5 µM | O=C(Cc1ncc(-c2ccc(F)c(F)c2)cc1F)N(Cc1ccnc(OC(F)F)c1)C1C=CS(=O)(=O)C1 (stereo not shown) [I-698, N-{[2-(difluoromethoxy)pyridin-4-yl]methyl}-2-[5-(3,4-difluorophenyl)-3-fluoropyridin-2-yl]-N-(1,1-dioxo-2,3-dihydro-1lambda6-thiophen-3-yl)acetamide] |
| > 50 µM | COc1cc(CN(C(=O)C(O/C=C/S(C)(=O)=O)c2ccc(-c3ccc(F)c(F)c3)cc2F)[C@@H]2C=CS(=O)(=O)C2)ccn1 (single isomer, unassigned) [I-803, (2R*)-N-[(3R)-1,1-dioxo-2,3-dihydro-1lambda6-thiophen-3-yl]-2-{[(1E)-2-methanesulfonylethenyl]oxy}-N-[(2-methoxypyridin-4-yl)methyl]-2-{3,3′,4′-trifluoro-[1,1′-biphenyl]-4-yl}acetamide] |
| > 50 µM | CC(C)C(=O)NC(Cc1c[nH]c2ccccc12)C(=O)N(Cc1ccncc1)C1C=CS(=O)(=O)C1 (stereo not shown) [I-559, N-(1,1-dioxo-2,3-dihydro-1lambda6-thiophen-3-yl)-3-(1H-indol-3-yl)-2-(2-methylpropanamido)-N-[(pyridin-4-yl)methyl]propanamide] |
| < 0.5 µM | Cc1cccn1-c1ccc(CC(=O)N(Cc2ccnc3c2CCC3(C)O)C2C=CS(=O)(=O)C2)c(F)c1 (stereo not shown) [I-78, N-(1,1-dioxo-2,3-dihydro-1lambda6-thiophen-3-yl)-2-[2-fluoro-4-(2-methyl-1H-pyrrol-1-yl)phenyl]-N-({7-hydroxy-7-methyl-5H,6H,7H-cyclopenta[b]pyridin-4-yl}methyl)acetamide] |
| 0.5 to 5 µM | O=C(Cc1ccc(-n2cccc2)cc1)N(Cc1nc(C2CC2)cs1)C1C=CS(=O)(=O)C1 (stereo not shown) [I-111, N-[(4-cyclopropyl-1,3-thiazol-2-yl)methyl]-N-(1,1-dioxo-2,3-dihydro-1lambda6-thiophen-3-yl)-2-[4-(1H-pyrrol-1-yl)phenyl]acetamide] |
| > 50 µM | CN(C)C(=O)C(C(=O)N(Cc1ccncc1)C1C=CS(=O)(=O)C1)c1ccc(-c2ccc(F)cc2)cc1 (single isomer, unassigned) [I-362, (2R**)-N′-[(3R*)-1,1-dioxo-2,3-dihydro-1lambda6-thiophen-3-yl]-2-{4′-fluoro-[1,1′-biphenyl]-4-yl}-N,N-dimethyl-N′-[(pyridin-4-yl)methyl]propanediamide] |
| > 50 µM | COc1cc(CN(C(=O)C(OC)c2ccc(-c3ccc(F)cc3)cc2F)C2C=CS(=O)(=O)C2)ccn1 (single isomer, unassigned) [I-404, (2R*)-2-{3,4′-difluoro-[1,1′-biphenyl]-4-yl}-N-[(3R**)-1,1-dioxo-2,3-dihydro-1lambda6-thiophen-3-yl]-2-methoxy-N-[(2-methoxypyridin-4-yl)methyl]acetamide] |
| > 50 µM | O=C(Cc1nc(C2CC2)cs1)N(Cc1ccncc1)C1C=CS(=O)(=O)C1 (stereo not shown) [I-580, 2-(4-cyclopropyl-1,3-thiazol-2-yl)-N-(1,1-dioxo-2,3-dihydro-1lambda6-thiophen-3-yl)-N-[(pyridin-4-yl)methyl]acetamide] |
| 10 to 50 µM | O=C(CCCC[C@@H]1SC[C@@H]2NC(=O)N[C@@H]21)NCCOCCOCCOCCOCCOCCOCCC(=O)N1CCN(Cc2ccc(CN(C(=O)Cc3ccc(-n4cccc4)cc3F)C3C=CS(=O)(=O)C3)cc2)CC1 (stereo partly drawn) [II-4, 5-[(3aS,4S,6aR)-2-oxo-hexahydro-1H-thieno[3,4-d]imidazol-4-yl]-N-(21-{4-[(4-{[N-(1,1-dioxo-2,3-dihydro-1lambda6-thiophen-3-yl)-2-[2-fluoro-4-(1H-pyrrol-1-yl)phenyl]acetamido]methyl}phenyl)methyl]piperazin-1-yl}-21-oxo-3,6,9,12,15,18-hexaoxahenicosan-1-yl)pentanamide] |
